Assays:
Test in all cases: Kinase profiling
Type in all cases: biochemical
PDK1 = target: T1, PDK1 (Homo sapiens, UniProt O15530)
T1 construct: purchased ProQinase (Freiburg, Germany)
T1 sequence (O15530 1-556): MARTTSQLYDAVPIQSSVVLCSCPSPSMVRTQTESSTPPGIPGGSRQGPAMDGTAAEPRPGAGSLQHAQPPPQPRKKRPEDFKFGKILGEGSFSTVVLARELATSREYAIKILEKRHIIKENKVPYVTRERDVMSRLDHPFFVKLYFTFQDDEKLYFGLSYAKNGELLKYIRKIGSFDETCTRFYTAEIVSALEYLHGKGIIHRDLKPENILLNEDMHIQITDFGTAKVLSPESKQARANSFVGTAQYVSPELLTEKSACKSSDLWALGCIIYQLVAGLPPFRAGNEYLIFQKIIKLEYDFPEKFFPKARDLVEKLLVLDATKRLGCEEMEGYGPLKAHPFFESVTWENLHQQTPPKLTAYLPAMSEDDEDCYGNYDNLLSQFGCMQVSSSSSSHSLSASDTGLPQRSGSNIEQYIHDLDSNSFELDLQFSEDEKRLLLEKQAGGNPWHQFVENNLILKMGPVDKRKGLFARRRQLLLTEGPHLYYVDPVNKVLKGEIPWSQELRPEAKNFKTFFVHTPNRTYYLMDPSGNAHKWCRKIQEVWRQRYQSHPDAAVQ
Procedure: (§1) The analysis was performed by ProQinase (Freiburg, Germany).

PKCzeta = target: T2, PKCzeta (Homo sapiens, UniProt Q05513)
T2 construct: purchased ProQinase (Freiburg, Germany)
T2 sequence (Q05513 1-592): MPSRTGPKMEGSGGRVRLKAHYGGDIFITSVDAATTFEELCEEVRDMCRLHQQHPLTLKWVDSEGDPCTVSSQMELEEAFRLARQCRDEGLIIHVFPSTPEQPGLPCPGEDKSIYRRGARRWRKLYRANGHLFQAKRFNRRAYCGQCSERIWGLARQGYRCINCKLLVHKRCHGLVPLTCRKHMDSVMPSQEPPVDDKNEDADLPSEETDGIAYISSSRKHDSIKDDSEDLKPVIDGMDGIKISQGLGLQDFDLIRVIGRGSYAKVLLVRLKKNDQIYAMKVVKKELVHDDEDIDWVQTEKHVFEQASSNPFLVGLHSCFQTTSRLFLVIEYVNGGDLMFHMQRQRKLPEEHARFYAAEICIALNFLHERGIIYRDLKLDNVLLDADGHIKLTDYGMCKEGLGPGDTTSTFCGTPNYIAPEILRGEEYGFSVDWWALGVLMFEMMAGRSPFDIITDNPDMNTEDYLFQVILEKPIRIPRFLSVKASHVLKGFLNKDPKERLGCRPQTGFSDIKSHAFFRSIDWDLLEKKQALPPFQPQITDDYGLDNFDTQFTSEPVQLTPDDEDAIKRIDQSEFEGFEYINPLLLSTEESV
Procedure: as §1

RPS6KA1 = target: T3, RPS6KA1 (Homo sapiens, UniProt Q15418)
T3 construct: purchased ProQinase (Freiburg, Germany)
Procedure: as §1

PIM3 = target: T4, PIM3 (Homo sapiens, UniProt Q86V86)
T4 construct: purchased ProQinase (Freiburg, Germany)
Procedure: as §1

MKK4 = target: T5, MKK4 (Homo sapiens, UniProt P45985)
T5 construct: purchased ProQinase (Freiburg, Germany)
T5 sequence (P45985 1-399): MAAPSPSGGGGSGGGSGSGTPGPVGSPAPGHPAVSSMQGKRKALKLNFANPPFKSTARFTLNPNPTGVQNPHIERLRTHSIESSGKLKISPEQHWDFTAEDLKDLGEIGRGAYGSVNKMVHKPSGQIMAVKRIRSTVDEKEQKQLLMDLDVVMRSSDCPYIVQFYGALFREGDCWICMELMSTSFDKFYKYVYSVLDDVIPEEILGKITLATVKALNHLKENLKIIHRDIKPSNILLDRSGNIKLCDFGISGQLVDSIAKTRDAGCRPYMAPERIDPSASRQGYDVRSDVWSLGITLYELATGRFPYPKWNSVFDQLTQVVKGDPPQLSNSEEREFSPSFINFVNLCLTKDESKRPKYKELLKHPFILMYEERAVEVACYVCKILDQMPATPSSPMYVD
Procedure: as §1

JAK3 = target: T6, JAK3 (Homo sapiens, UniProt P52333)
T6 construct: purchased ProQinase (Freiburg, Germany)
T6 sequence (P52333 1-1124): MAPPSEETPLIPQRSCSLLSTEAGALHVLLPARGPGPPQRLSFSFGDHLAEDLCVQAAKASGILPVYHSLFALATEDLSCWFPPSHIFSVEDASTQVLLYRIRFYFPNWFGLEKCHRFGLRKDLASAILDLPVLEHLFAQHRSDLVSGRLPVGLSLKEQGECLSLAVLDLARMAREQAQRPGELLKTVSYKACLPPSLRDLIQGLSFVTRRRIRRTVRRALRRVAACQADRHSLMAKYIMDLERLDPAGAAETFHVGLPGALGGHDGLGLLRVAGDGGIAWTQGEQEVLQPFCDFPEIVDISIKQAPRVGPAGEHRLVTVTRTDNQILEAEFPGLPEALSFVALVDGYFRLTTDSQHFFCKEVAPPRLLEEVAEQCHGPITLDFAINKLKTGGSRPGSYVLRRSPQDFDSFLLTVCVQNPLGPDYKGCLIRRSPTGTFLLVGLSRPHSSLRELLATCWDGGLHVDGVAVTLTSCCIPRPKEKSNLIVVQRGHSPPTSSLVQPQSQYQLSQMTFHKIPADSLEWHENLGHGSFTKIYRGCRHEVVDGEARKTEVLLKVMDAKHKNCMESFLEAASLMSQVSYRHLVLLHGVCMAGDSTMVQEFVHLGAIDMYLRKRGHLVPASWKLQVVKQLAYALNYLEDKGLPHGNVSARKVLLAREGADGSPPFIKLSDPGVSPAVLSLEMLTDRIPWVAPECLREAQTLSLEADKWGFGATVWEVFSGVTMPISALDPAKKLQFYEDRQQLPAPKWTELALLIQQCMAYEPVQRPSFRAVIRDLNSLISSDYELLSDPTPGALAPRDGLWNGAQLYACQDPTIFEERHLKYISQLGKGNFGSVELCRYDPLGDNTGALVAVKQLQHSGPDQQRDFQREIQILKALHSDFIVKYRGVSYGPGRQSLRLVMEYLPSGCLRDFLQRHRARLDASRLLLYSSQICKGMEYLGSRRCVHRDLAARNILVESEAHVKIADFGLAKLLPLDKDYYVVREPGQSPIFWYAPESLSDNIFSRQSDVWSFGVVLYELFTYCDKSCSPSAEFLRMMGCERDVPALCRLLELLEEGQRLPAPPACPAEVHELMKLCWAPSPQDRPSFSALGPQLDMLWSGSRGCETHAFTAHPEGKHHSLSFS
Procedure: as §1

RET = target: T7, RET (Homo sapiens, UniProt P07949)
T7 construct: purchased ProQinase (Freiburg, Germany)
Procedure: as §1

T7 sequence (P07949 29-1114): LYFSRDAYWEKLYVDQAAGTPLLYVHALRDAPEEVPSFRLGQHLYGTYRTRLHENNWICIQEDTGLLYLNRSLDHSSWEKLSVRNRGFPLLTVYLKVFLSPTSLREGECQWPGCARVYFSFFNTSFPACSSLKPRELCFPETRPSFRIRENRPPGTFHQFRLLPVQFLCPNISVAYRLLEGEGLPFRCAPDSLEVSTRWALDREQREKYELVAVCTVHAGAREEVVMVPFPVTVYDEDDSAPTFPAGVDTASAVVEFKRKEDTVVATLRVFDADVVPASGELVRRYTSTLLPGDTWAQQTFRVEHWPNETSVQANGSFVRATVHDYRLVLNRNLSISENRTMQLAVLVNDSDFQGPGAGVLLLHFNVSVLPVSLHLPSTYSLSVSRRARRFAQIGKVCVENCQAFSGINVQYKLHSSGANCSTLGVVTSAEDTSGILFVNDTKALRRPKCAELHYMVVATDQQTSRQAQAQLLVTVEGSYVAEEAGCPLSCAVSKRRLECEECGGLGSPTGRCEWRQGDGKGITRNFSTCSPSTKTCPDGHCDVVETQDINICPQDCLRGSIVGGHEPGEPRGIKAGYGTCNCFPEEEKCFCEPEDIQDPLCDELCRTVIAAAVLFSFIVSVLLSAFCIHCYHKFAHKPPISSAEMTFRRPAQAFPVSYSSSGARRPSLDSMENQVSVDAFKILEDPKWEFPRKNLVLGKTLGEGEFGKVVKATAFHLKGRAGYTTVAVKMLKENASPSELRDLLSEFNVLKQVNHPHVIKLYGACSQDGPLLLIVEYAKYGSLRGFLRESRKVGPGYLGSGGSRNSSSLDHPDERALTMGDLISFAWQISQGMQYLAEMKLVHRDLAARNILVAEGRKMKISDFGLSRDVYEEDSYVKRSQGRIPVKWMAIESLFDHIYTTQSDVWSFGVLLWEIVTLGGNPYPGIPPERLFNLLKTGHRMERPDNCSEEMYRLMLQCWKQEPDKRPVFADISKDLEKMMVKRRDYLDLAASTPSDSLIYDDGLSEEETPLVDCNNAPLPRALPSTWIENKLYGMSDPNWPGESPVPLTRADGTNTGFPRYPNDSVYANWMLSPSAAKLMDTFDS
T3 sequence (Q15418 whole entry): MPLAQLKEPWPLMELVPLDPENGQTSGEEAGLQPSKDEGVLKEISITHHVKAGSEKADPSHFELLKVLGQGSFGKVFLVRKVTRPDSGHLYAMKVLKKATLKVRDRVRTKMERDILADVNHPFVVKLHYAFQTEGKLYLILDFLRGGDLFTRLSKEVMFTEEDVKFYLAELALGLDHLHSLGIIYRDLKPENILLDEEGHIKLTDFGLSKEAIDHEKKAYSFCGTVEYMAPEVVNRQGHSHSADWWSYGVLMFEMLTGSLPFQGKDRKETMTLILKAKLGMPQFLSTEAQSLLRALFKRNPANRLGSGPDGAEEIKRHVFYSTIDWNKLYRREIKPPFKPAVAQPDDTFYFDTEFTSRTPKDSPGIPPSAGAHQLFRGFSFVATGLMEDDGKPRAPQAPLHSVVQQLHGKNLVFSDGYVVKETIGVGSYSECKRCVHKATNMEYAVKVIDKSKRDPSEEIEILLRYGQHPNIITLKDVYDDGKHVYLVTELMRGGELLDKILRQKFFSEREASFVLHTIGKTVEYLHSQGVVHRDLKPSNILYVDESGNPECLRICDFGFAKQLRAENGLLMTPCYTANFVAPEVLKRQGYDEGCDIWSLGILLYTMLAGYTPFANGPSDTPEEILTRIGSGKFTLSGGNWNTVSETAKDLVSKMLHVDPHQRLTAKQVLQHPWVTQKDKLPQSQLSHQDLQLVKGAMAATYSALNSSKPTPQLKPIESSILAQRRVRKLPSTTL

Row | SMILES | Residual activity (PDK1; 1.0E-05 M) | Residual activity (PDK1; 1.0E-06 M) | Residual activity (PKCzeta; 1.0E-05 M) | Residual activity (PKCzeta; 1.0E-06 M) | Residual activity (RPS6KA1; 1.0E-05 M) | Residual activity (RPS6KA1; 1.0E-06 M) | Residual activity (PIM3; 1.0E-05 M) | Residual activity (PIM3; 1.0E-06 M) | Residual activity (MKK4; 1.0E-05 M) | Residual activity (MKK4; 1.0E-06 M) | Residual activity (JAK3; 1.0E-05 M) | Residual activity (JAK3; 1.0E-06 M) | Residual activity (RET; 1.0E-05 M) | Residual activity (RET; 1.0E-06 M)
1 | O=C(Cc1ccccc1)Nc1ccc(F)c(Nc2ccc3c(c2)CCCCC3=O)c1 [Compound 100] | 57 % of control | 102 % of control | 102 % of control | 92 % of control | 96 % of control | 110 % of control | 89 % of control | 90 % of control | 110 % of control | 94 % of control | 75 % of control | 80 % of control | 70 % of control | 91 % of control
2 | O=C(Nc1ccc(F)c(Nc2ccc3c(c2)CCCCC3=O)c1)c1cccc(F)c1 [Compound 109] | 80 % of control | 98 % of control | 96 % of control | 87 % of control | 95 % of control | 96 % of control | 102 % of control | 89 % of control | 111 % of control | 96 % of control | 79 % of control | 83 % of control | 89 % of control | 95 % of control

From article PMC9030254, “Target Hopping from Protein Kinases to PXR: Identification of Small-Molecule Protein Kinase Inhibitors as Selective Modulators of Pregnane X Receptor from TüKIC Library” (Cells, 2022)
